Measurements from ChEMBL document CHEMBL1201862, “PubChem BioAssay data set” (2004).
Activity calls are given as the source filed them.

Columns and labels:
Caspase-3 = biological target: T1, Caspase-3 (Homo sapiens, UniProt P42574); assay: SAR Analysis of small molecule inhibitors of Sentrin-specific proteases (SENPs) using a Caspase-3 Selectivity assay. [Related pubchem assays (depositor defined):AID2540, AID2599, AID434973, AID489001]; format: functional
T1 sequence (P42574 whole entry): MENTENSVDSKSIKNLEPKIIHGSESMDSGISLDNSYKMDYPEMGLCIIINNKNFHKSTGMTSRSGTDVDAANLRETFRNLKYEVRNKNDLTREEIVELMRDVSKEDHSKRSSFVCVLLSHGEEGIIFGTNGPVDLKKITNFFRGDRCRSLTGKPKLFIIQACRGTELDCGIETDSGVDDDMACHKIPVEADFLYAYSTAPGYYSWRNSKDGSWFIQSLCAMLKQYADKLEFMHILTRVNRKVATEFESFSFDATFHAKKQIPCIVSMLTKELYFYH

[1] = biological target: T2, Sentrin-specific protease 6 (Homo sapiens, UniProt Q9GZR1); assay: SAR Analysis of small molecule inhibitors of Sentrin-specific protease 6 (SENP6) using a Luminescent assay. [Related pubchem assays (depositor defined):AID2582, AID2599]; format: functional
T2 sequence (Q9GZR1 whole entry): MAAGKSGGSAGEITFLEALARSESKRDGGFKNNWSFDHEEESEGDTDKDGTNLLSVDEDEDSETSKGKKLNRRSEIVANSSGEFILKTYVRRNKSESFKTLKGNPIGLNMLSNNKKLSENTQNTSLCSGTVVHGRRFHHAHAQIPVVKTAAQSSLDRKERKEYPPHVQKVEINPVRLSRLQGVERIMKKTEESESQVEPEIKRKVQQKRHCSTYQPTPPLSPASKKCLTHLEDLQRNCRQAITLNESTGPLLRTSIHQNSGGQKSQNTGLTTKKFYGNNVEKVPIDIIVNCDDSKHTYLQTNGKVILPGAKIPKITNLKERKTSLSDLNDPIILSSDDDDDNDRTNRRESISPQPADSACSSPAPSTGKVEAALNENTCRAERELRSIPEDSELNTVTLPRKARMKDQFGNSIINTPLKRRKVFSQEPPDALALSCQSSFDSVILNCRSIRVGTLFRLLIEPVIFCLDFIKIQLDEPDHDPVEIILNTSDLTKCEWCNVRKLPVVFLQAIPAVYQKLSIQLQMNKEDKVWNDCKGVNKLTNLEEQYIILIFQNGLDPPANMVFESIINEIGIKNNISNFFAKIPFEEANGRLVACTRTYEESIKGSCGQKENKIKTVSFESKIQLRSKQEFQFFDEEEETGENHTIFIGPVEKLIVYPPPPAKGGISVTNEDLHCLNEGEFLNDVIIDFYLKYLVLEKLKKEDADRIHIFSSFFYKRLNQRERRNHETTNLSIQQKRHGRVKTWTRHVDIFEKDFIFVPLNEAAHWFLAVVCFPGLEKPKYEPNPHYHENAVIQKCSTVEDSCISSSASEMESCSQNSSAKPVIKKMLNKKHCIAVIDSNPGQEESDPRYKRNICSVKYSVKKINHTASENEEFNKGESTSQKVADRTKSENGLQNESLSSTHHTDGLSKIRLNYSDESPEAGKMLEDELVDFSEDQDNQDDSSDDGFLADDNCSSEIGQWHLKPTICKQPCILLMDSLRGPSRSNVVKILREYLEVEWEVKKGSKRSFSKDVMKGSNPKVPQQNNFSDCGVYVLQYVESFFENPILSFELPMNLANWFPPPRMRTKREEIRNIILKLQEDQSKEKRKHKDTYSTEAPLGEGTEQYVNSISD

[2] = biological target: T3, Sentrin-specific protease 7 (Homo sapiens, UniProt Q9BQF6); assay: SENP7 protease inhibitors, SAR follow-up, biochemical, luminescence (AID 504497); format: functional
T3 sequence (Q9BQF6 whole entry): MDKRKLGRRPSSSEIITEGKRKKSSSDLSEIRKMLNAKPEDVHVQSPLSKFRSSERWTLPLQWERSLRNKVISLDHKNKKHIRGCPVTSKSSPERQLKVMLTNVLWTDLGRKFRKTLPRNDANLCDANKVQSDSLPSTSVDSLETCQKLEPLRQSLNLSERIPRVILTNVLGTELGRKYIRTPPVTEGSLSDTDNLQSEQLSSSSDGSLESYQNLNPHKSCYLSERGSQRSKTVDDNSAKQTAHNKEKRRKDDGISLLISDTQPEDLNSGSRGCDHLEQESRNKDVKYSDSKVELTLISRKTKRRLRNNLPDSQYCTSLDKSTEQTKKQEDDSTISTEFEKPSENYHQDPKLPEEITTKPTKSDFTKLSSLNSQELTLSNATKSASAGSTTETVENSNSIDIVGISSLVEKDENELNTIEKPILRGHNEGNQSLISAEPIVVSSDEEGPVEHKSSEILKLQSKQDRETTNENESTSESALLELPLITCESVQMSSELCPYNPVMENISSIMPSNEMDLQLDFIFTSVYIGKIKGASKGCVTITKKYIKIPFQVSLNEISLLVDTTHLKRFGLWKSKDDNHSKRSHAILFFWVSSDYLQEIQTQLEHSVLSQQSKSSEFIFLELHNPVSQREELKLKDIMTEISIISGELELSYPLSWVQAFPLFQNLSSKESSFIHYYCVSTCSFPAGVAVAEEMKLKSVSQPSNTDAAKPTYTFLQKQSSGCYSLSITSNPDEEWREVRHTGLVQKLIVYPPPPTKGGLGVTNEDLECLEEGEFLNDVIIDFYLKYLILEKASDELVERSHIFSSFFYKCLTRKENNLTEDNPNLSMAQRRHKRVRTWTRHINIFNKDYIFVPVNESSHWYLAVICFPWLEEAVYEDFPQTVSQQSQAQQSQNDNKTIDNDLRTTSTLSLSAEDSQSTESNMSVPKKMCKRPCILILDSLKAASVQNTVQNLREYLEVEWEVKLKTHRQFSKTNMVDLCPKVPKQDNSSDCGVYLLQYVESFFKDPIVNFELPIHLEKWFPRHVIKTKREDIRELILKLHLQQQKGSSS

[3] = biological target: T4, Sentrin-specific protease 8 (Homo sapiens, UniProt Q96LD8); assay: SENP8 protease inhibitors, SAR follow-up, biochemical, luminescence (AID 504501); format: functional
T4 sequence (Q96LD8 whole entry): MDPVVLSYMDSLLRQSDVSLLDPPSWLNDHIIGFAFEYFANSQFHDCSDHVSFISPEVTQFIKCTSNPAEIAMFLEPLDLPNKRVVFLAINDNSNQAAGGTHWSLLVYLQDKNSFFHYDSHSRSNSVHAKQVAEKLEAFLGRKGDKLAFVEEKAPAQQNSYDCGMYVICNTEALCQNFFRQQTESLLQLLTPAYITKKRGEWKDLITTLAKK

[4] = biological target: T5, Zinc finger protein mex-5 (Caenorhabditis elegans, UniProt Q9XUB2); assay: MEX-5/TCR-2 RNA interaction inhibitors, dose response, biochemical, C. elegans, fluorescence polarization (AID 1960)
T5 sequence (Q9XUB2 whole entry): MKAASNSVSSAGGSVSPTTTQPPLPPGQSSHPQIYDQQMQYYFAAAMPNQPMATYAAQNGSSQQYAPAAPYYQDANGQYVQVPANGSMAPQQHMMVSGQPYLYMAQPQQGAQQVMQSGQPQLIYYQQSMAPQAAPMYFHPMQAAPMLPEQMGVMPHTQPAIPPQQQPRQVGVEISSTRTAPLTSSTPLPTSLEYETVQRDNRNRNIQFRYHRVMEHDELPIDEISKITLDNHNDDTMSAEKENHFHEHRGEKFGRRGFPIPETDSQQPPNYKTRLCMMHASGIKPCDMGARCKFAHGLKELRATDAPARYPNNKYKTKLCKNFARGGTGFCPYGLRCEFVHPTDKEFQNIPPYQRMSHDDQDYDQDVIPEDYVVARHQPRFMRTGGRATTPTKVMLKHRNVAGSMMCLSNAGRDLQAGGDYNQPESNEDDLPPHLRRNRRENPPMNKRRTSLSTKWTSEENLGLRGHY

[5] = biological target: T6, Endoribonuclease toxin MazF (Escherichia coli K-12, UniProt P0AE70); assay: MazF toxin RNase activators, dose response, biochemical, fluorescence, single-stranded RNA substrate, uHTS hits (AID 588481); format: functional
T6 sequence (P0AE70 whole entry): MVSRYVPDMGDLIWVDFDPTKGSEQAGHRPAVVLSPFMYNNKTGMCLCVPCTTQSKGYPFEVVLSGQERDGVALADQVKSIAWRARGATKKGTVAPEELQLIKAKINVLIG

[6] = biological target: T7, RNA-binding protein pos-1 (Caenorhabditis elegans, UniProt G5EF15); assay: inhibitors of POS-1/mex-3 RNA binding, dose response, biochemical, fluorescence polarization (AID 1964);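 note: purified POS-1 fused to maltose binding protein made in E. coli; potency of compounds blocking POS-1 binding to fluorescent RNA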
T7 sequence (G5EF15 whole entry): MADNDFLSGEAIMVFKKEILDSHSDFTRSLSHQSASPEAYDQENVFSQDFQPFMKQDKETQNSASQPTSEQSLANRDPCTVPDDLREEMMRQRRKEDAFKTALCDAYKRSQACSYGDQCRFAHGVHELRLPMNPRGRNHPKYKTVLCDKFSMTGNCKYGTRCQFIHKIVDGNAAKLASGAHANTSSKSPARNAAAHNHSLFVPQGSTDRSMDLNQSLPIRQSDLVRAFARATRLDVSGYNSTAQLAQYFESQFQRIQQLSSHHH

[7] = biological target: T6, Endoribonuclease toxin MazF; assay: fluorescent RNA oligo signal without MazF, dose response, counter-screen for MazEF activator project, biochemical, fluorescence, single-stranded RNase substrate (AID 588502); format: functional
[8] = cytotoxicity toward DRD oncogenic fibroblasts, dose response, cell-based, non-viral oncogenic, luminescence (AID 1934); format: functional; details: Homo sapiens
BJ [9] = assay: cytotoxicity toward BJ-TERT fibroblasts, dose response, cell-based, RAS-independent, luminescence (AID 1933); format: functional; details: Homo sapiens
BJ [10] = assay: cytotoxicity toward Ras-transformed BJeLR fibroblasts, dose response, cell-based, alamar blue fluorescence, cherrypicked samples (AID 2631); format: functional; details: Homo sapiens;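 note: confirmatory dose-response assay in RAS-dependent BJ fibroblasts engineered with TERT, LT and ST, with cytotoxicity read by fluorescence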
BJ [11] = assay: cells; format: functional, cell-based; details: Homo sapiens
BJ [12] = assay: cytotoxicity toward BJ-TERT-LT-ST fibroblasts, dose response, cell-based, RAS-independent, luminescence (AID 1935); format: functional; details: Homo sapiens;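 note: BJ fibroblasts immortalized with TERT plus LT and ST oncogenes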

| SMILES | IC50 (Caspase-3) | IC50 [1] | IC50 [2] | IC50 [3] | further results |
| --- | --- | --- | --- | --- | --- |
| Cc1cccc(N/N=C/c2c[nH]c3ccccc23)c1 | > 99 µM (inactive) | 32 µM (active) | 18 µM (active) | 34.5 µM (active) | – |
| CCCCOc1cccc(C2C(C(=O)c3ccc(C)o3)=C(O)C(=O)N2c2nnc(C)s2)c1 (stereo unspecified) | – | – | – | – | EC50 [4]: 77.4 µM (active); EC50 [5]: > 99 µM (inactive); EC50 [6]: 102 µM (active); EC50 [7]: 20.4 µM (inactive) |
| CN(C)c1nc(NCc2ccccc2)nc(N/N=C/c2ccc(Br)cc2)n1 | > 99 µM (inactive) | > 99 µM (inactive) | > 99 µM (inactive) | > 99 µM (inactive) | – |
| O=[N+]([O-])c1ccccc1CNCCc1c[nH]c2ccccc12 | > 99 µM (inactive) | > 99 µM (inactive) | > 99 µM (inactive) | > 99 µM (inactive) | – |
| CSc1cc(-c2ccccc2)n(Cc2ccccc2Cl)c(=O)c1C#N | – | – | – | – | EC50 [8]: 3.67 µM (active); EC50 (BJ [9]): 10.1 µM (inconclusive); EC50 (BJ [10]): 1.92 µM (active); EC50 (BJ [11]): 43.8 µM (active); EC50 (BJ [12]): 33.6 µM (inconclusive) |
